Results reported in patent publication US8952054B2, “Small molecule inhibitors of MUC1 and methods of identifying the same” (Dana-Farber Cancer Institute, Inc., priority 2010, dated 2015).
Blank lines part the entries; values can stand above or below the molecule they belong to.

Columns and labels:
[1] = target: T1, His-MUC1-CD (Homo sapiens, UniProt P15941); test: BIAcore binding of peptides to immobilized His-MUC1-CD
T1 construct: made in house
T1 sequence (P15941 1184-1255): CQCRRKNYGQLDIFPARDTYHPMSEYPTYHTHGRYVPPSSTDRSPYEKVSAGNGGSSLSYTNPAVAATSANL
Experimental: FIGS. 1A-D. MUC1/CQC peptide blocks MUC1 oligomerization. (FIG. 1A) Schematic representation of the MUC1-C subunit and the 72-amino acid sequence of MUC1-CD (SEQ ID NO: 1) are shown. The N-terminal 15 amino acids (shaded sequence) MUC1/CQC (SEQ ID NO: 10) and mutated MUC1/AQA (SEQ ID NO: 11) peptides were synthesized with the poly-dArg transduction domain. (FIG. 1B) His-MUC1-CD (1.4 mg/ml) was immobilized on a sensor chip in a BIAcore. MUC1/CQC was injected over the chip at 10 μM. Raw binding data were analyzed by BIAevaluation software version 3.0 and fit to a 1:1 Languir binding model. (FIG. 1C) Purified His-MUC1-CD (1.5 mg/ml) was incubated with PBS, 200 μM MUC1/CQC or 200 μM MUC1/AQA for 1 h at room temperature. The proteins were separated in a non-reducing SDS-polyacrylamide gel and analyzed by immunoblotting with anti-MUC1-C. (FIG. 1D) 293 cells were transiently transfected to express an empty vector or GFP-MUC1-CD and Flag-MUC1-CD. At 48 h after transfection, the cells were treated with 5 μM MUC1/CQC or MUC1/AQA for 3 d. The cells were then harvested for immunoblotting with anti-MUC1-C (left panel). […]
The MUC1 cytoplasmic domain (MUC1-CD) contains a CQC motif that is necessary for the formation of oligomers and nuclear localization (Leng et al., 2007). […] Purified His-tagged MUC1-CD forms oligomers as detected by electrophoresis in polyacrylamide gels (FIG. 1C). […]

[2] = target: T2, MUC1-CD (Homo sapiens, UniProt P15941); test: Plate-based MUC1-CD dimerization inhibition assay (primary screening); type: biochemical
T2 construct: the 72 aa cytoplasmic domain (CD); His; made in house
T2 sequence (P15941 1184-1255 limits assumed): T1 sequence (P15941 1184-1255)
Experimental: FIG. 6—Schematic Illustration of Primary HTS Screening Assay for MUC1-CD Dimerization. MUC1-CD protein was coated on a 96 well plate and then incubated with Biotinylated MUC1-CD that binds to non-biotinylated MUC1-CD protein by dimer formation. Bound biotinylated MUC1-CD protein was detected by incubation with Streptavin-HRP+peroxidase substrate system.
FIGS. 11A-C—Identification of MUC1-CD dimerization inhibitors in a small molecule screen. (FIG. 11A) Schematic representation of the MUC1-C subunit with the 58 amino acid (aa) extracellular domain (ECD), the 28 aa transmembrane domain (TD) and the 72 aa cytoplasmic domain (CD; SEQ ID NO: 1). The sequence of MUC1-CD is included with highlighting of the CQC dimerization motif. (FIG. 11B) The assay for identification of MUC1-CD dimerization inhibitors is depicted with the following steps: (i) coating of MUC1-CD onto a microplate, (ii) adding soluble biotinylated MUC1-C and […] compound, and (iii) addition of streptavidin-HRP and then peroxide with conversion by HRP to a blue color. The signal is measured by EnVision and proportional to the amount of bound biotin-labeled MUC1-CD.
FIGS. 12A-D—Apigenin is an inhibitor of MUC1-CD dimerization in vitro and in cells. (FIG. 12A) Structures of apigenin and its analogue baicalein. Using the in vitro screening assay, dimerization of MUC1-CD was assessed in the presence of 100 μM apigenin or 100 μM baicalein each dissolved in 0.1% DMSO. The results (mean±SD of 3 determinations) are expressed as percentage of control dimerization in the presence of DMSO alone. (FIG. 12B) MUC1-CD dimerization was assessed in the presence of the indicated concentrations of apigenin in the in vitro screening assay. […] (FIG. 12C) Soluble MUC1-CD was incubated in the presence of 1% DMSO, 1 mM apigenin or 1 mM baicalein for 1 h at room temperature. Monomers and dimmers were assessed by electrophoresis in a non-reducing gel and immunoblotting with anti-MUC1-C. (FIG. 12D) 293 cells were transiently transfected to express an empty vector or GFP-MUC1-CD and Flag-MUC1-CD. At six hours after transfection, the cells were left untreated, and treated with 75 μM apigenin or baicalein for 3 days. Whole-cell lysates were precipitated with anti-Flag, and the precipitates were immunoblotted with the indicated antibodies.
Multi-well (96- or 384-well) plates are coated with non-biotinylated MUC1-CD, and biotinylated MUC1-CD is added to the plates to initiate MUC1-CD dimerization or oligomerization. A luminescent substrate for biotin binding is added to the plate, followed by washing. Resulting fluorescence is detected by luminescence detection at absorbance 405 nm. A complete schematic illustration of this assay is described in […]. Test compounds are added at multiple concentrations to the plates and, following incubation and washing, the plates are read for luminescent detection. The formation of MUC1-CD dimers is detected.
To develop a HTS assay for compounds that inhibit MUC1-CD dimerization, the inventors generated purified His-tagged MUC1-CD protein. They also generated a biotin-labeled His-tagged MUC1-CD protein using a standard biotinylation kit. Biotinylated and non-biotinylated proteins were purified through Nickel columns.
The inventors coated 96- or 384-well plates with non-biotinylated MUC1-CD protein and added biotinylated MUC1-CD protein to the plates to initiate MUC1-CD/MUC1-CD dimerization or oligomerization. They then added a substrate to the plate which will bind to the biotinylated protein (only at the dimer or oligomer state) and the resultant fluorescence was detected by luminescence detection at absorbance 405 nm. A complete schematic illustration of this assay is described in FIG. 6.
Individual compounds from the chemical libraries were then added at multiple concentrations (0.01 μM to 100 μM) to the plates and following incubation and washing, the plates were read by luminescence detection at […]. […]

[3] = 100 μM, compared to vehicle (DMSO)

binding to His-MUC1-CD ([1]; BIAcore, data not shown): no apparent binding
Molecule: MUC1/AQA: control peptide in which the CQC motif was altered to AQA (SEQ ID NO: 11) (AQARRKNYGQLDIFP) [reference compound]

inhibition of MUC1-CD dimerization [2, 3]: little if any effect
Molecule: O=c1cc(-c2ccccc2)oc2cc(O)c(O)c(O)c12 [Baicalein, 5,6,7-trihydroxyflavone, reference compound]

inhibition at 100 µM [2, 3]: ~80%
initial library screen result ([2]; library of Table 1): MUC1 dimerization inhibitory compounds
IC50 ([2]; range of concentrations, read-out: 50% inhibition (IC50) of MUC1-CD dimerization): 76 µM
Molecule: O=c1cc(-c2ccc(O)cc2)oc2cc(O)cc(O)c12 [Apigenin, 4′,5,7-trihydroxyflavone]

Kd ([1]; His-tagged MUC1-CD immobilized on BIAcore sensor chip, peptide injected at 10 μM, 1:1 binding model, read-out: dissociation constant (Kd)): 0.03 µM
Molecule: CC[C@H](C)[C@H](NC(=O)[C@H](CC(=O)O)NC(=O)[C@H](CC(C)C)NC(=O)[C@H](CCC(N)=O)NC(=O)CNC(=O)[C@H](Cc1ccc(O)cc1)NC(=O)[C@H](CC(N)=O)NC(=O)[C@H](CCCCN)NC(=O)[C@H](CCCNC(=N)N)NC(=O)[C@H](CCCNC(=N)N)NC(=O)[C@H](CS)NC(=O)[C@H](CCC(N)=O)NC(=O)[C@H](CS)NC(=O)[C@@H](CCCNC(=N)N)NC(=O)[C@@H](CCCNC(=N)N)NC(=O)[C@@H](CCCNC(=N)N)NC(=O)[C@@H](CCCNC(=N)N)NC(=O)[C@@H](CCCNC(=N)N)NC(=O)[C@@H](CCCNC(=N)N)NC(=O)[C@@H](CCCNC(=N)N)NC(=O)[C@@H](CCCNC(=N)N)NC(=O)[C@H](N)CCCNC(=N)N)C(=O)N[C@@H](Cc1ccccc1)C(=O)N1CCC[C@H]1C(=O)O [MUC1/CQC]
